Data: US5079254A, “Derivatives of 6-aminooctahydroindolizinetriol” (Merrell Dow Pharmaceuticals Inc., priority 1990, dated 1992)

Columns and labels:
[1] = molecular target: hexosaminidase from porcine placenta; experiment: Inhibition of hexosaminidase activity, 4-nitrophenyl-N-acetyl-β-glucosaminide substrate, 96-well microplate (porcine placenta enzyme); type: biochemical; settings: pH 4.5, 10 min preincubation at room temperature, substrate 30 min at 37° C., read at 405 nm
Description: (§1) In a preliminary screen, test compounds are studied over a range of concentrations from 0.1 to 100 μg/ml. together with a control sample. Specifically, the test compound is added to individual wells and made up to a total volume of 100 μl. To each well is added 25 μl of 1M sodium citrate buffer pH 4.5 and 25 μl of enzyme (1 mμ) in 10 mM sodium citrate at pH 4.5. The material is mixed and incubated at room temperature for 10 minutes. Then 50 μl of 10 mM substrate (4-nitrophenyl-N-acetyl-8-glucosaminide, Sigma # N-91376) is added and the mixture is incubated at 37° C. for 30 minutes. The reaction is then killed by adding 100 μl of 2% sodium carbonate and the yellow color due to release of 4-nitrophenol is read at 405 nm in an Elisa reader. The results obtained in this preliminary screen are then examined and, if inhibition has taken place, the procedure is repeated using several concentrations over a narrower range to provide for a more precise determination of the IC50.

[2] = molecular target: hexosaminidase from human placenta; experiment: Inhibition of hexosaminidase activity, 4-nitrophenyl-N-acetyl-β-glucosaminide substrate, 96-well microplate (human placenta enzyme); type: biochemical; settings: pH 4.5, 10 min preincubation at room temperature, substrate 30 min at 37° C., read at 405 nm
Description: as §1

Lewis lung tumor cell = settings: female mice implanted with Lewis lung tumor cell; Bernacki, page 93; cited from earlier work

CC(=O)N[C@H]1CN2CC[C@H](O)[C@@H]2[C@@H](O)[C@@H]1O [[1S-(1α,6β,7α,8β,8aβ)]-6-acetamidooctahydro-1,7,8-indolizinetriol]
IC50 value for the inhibition of hexosaminidase from porcine placenta [1]: 0.1 µg/mL
IC50 value for the inhibition of hexosaminidase from human placenta [2]: 0.1 µg/mL

CC(=O)NC1=CO[C@H](CO)[C@@H](O)[C@@H]1O [2-acetamidoglucal]
increase of life span (Lewis lung tumor cell): 63%
